In patent US20150284381A1, “AMINO-PYRIDINE-CONTAINING SPLEEN TYROSINE KINASE (SYK) INHIBITORS” (MERCK SHARP & DOHME CORP., priority 2012, published 2015) one finds IC50 data, which are given here for 22 compounds.

For the test, the target named is T1, recombinant human GST-Syk (Homo sapiens, UniProt P43405).
T1 construct: purchased Carna Biosciences 08-176
As to the kind of experiment: Homogeneous Time-Resolved Fluorescence (HTRF) assay for the recombinant human Syk enzyme. The test is classed as biochemical. The conditions noted are these: recombinant human GST-Syk 5 pM, ATP 25 μM, 45 min at rt, read-out: rhSyk. How it is done:
Homogeneous Time-Resolved Fluorescence (HTRF) Assay for the Recombinant Human Syk Enzyme
A recombinant GST-hSyk fusion protein was used to measure potency of compounds to inhibit human Syk activity. The recombinant human GST-Syk (Carna Biosciences #08-176) (5 pM nominal concentration) was incubated with various concentrations of the inhibitor diluted in DMSO (0.1% final concentration) for 10 minutes at rt in 15 mM Tris-HCl (pH 7.5), 0.01% tween 20, 2 mM DTT in 384 well plate format. To initiate the reaction the biotinylated substrate peptide (250 nM final concentration) that contains the phosphorylation site for Syk was added with magnesium (5 mM final concentration) and ATP (25 μM final concentration). Final volume of the reaction was 10 μL. Phosphorylation of the peptide was allowed to proceed for 45′ at rt. To quench the reaction and detect the phosphorylated product, 2 nM of a Europium-anti-phosphotyrosine antibody (Perkin Elmer #AD0161) and 70 nM SA-APC (Perkin-Elmer #CR130-100) were added together in 15 mM Tris pH 7.5, 40 mM EDTA, 0.01% tween 20. Final volume of the quenching solution was 10 μL. The resulting HTRF signal was measured after 30 minutes on a EnVision (Perkin-Elmer) reader using a time-resolved fluorescence protocol. IC50 was determined following 10-dose titration (10 μM to 0.508 nM) and four parameter logistic curve fitting using an assay data analyzer.
For orientation: In TR-FRET formats the signal depends on donor and acceptor labels being close together.

On to `Cc1cc(Nc2cc(C(F)(F)F)ccn2)nc(-c2cnc(C3(O)CCCc4cc(C(=O)O)c(Br)cc43)s2)c1` (single isomer, unassigned) [Example 1B, 3-Bromo-5-hydroxy-5-[5-(4-methyl-6-{[4-(trifluoromethyl)pyridin-2-yl]amino}pyridin-2-yl)-1,3-thiazol-2-yl]-5,6,7,8-tetrahydronaphthalene-2-carboxylic acid], for which the IC50 was 0.51 nM.
As for `Cc1cc(Nc2cc(C3CC3)ccn2)nc(-c2cnc(C3(O)CCCc4cc(C(=O)O)c(F)cc43)s2)c1` (single isomer, unassigned) [Example 1H, (R or S)-5-(5-{6-[(4-cyclopropylpyridin-2-yl)amino]-4-methylpyridin-2-yl}-1,3-thiazol-2-yl)-3-fluoro-5-hydroxy-5,6,7,8-tetrahydronaphthalene-2-carboxylic acid], the figure is 0.002 nM.
The value for `COc1ccnc(Nc2cc(C)cc(-c3cnc([C@@]4(O)CCc5cc(C(=O)O)ccc54)s3)n2)c1` [Example 2G, (1R)-1-hydroxy-1-(5-{6-[(4-methoxypyridin-2-yl)amino]-4-methylpyridin-2-yl}-1,3-thiazol-2-yl)-2,3-dihydro-1H-indene-5-carboxylic acid] was 0.16 nM.
The value for `Cc1cc(Nc2cc(-c3cn[nH]c3)ccn2)nc(-c2cnc(C3(O)CCCc4cc(C(=O)O)ccc43)s2)c1` (single isomer, unassigned) [Example 4B-2, 5-Hydroxy-5-[5-(4-methyl-6-{[4-(1H-pyrazol-4-yl)pyridin-2-yl]amino}pyridin-2-yl)-1,3-thiazol-2-yl]-5,6,7,8-tetrahydronaphthalene-2-carboxylic acid] was 0.8 nM; that for `COC(=O)c1ccc2c(c1)CCCC2(O)c1ncc(-c2cc(C)cc(Nc3cc(-c4cn[nH]c4)ccn3)n2)s1` (stereo not shown) [Example 4A, Methyl 5-(5-(6-((4-(1H-pyrazol-4-yl)pyridin-2-yl)amino)-4-methylpyridin-2-yl)thiazol-2-yl)-5-hydroxy-5,6,7,8-tetrahydronaphthalene-2-carboxylate] was 2.38 nM; that for `Cc1cc(Nc2cc(-c3cn[nH]c3)ccn2)nc(-c2cnc(C3(O)CCCc4cc(C(=O)N(C)C)ccc43)s2)c1` (single isomer, unassigned) [Example 4C-2, 5-Hydroxy-N,N-dimethyl-5-[5-(4-methyl-6-{[4-(1H-pyrazol-4-yl)pyridin-2-yl]amino}pyridin-2-yl)-1,3-thiazol-2-yl]-5,6,7,8-tetrahydronaphthalene-2-carboxamide] was 757 nM.
As to `Cc1cc(Nc2cc(-c3cn[nH]c3)ccn2)nc(-c2cnc(C3(O)CCCc4cc(C(=O)N(C)C)ccc43)s2)c1` (single isomer, unassigned) [Example 4C-1, 5-Hydroxy-N,N-dimethyl-5-[5-(4-methyl-6-{[4-(1H-pyrazol-4-yl)pyridin-2-yl]amino}pyridin-2-yl)-1,3-thiazol-2-yl]-5,6,7,8-tetrahydronaphthalene-2-carboxamide], the IC50 is 1.04 nM.
The value for `CCCc1ccnc(Nc2cc(C)cc(-c3cnc([C@@]4(O)CCCc5cc(C(=O)O)ccc54)s3)n2)c1` [Example 3E, (5R)-5-hydroxy-5-(5-{4-methyl-6-[(4-propylpyridin-2-yl)amino]pyridin-2-yl}-1,3-thiazol-2-yl)-5,6,7,8-tetrahydronaphthalene-2-carboxylic acid] was 0.42 nM; that for `Cc1cc(Nc2cc(C(F)(F)F)ccn2)nc(-c2cnc(C3(O)CCCc4cc(C(=O)O)c(Cl)cc43)s2)c1` (single isomer, unassigned) [Example 1E, (R or S)-3-chloro-5-hydroxy-5-[5-(4-methyl-6-{[4-(trifluoromethyl)pyridin-2-yl]amino}pyridin-2-yl)-1,3-thiazol-2-yl]-5,6,7,8-tetrahydronaphthalene-2-carboxylic acid] was 1.16 nM.
The value for `CCOc1ccnc(Nc2cc(C)cc(-c3cnc([C@@]4(O)CCc5cc(C(=O)O)ccc54)s3)n2)c1` [Example 2D, (1R)-1-(5-{6-[(4-ethoxypyridin-2-yl)amino]-4-methylpyridin-2-yl}-1,3-thiazol-2-yl)-1-hydroxy-2,3-dihydro-1H-indene-5-carboxylic acid] was 0.74 nM; that for `Cc1cc(Nc2cc(C(C)F)ccn2)nc(-c2cnc(C3(O)CCCc4cc(C(=O)O)ccc43)s2)c1` (single isomer, unassigned) [Example 8C, 5-(5-(6-((4-(1-Fluoroethyl)pyridin-2-yl)amino)-4-methylpyridin-2-yl)thiazol-2-yl)-5-hydroxy-5,6,7,8-tetrahydronaphthalene-2-carboxylic acid] was 2 nM; that for `CCOc1ccnc(Nc2cc(C)cc(-c3cnc([C@@]4(O)CCCc5cc(C(=O)O)ccc54)s3)n2)c1` [Example 2E, (5R)-5-(5-{6-[(4-ethoxypyridin-2-yl)amino]-4-methylpyridin-2-yl}-1,3-thiazol-2-yl)-5-hydroxy-5,6,7,8-tetrahydronaphthalene-2-carboxylic acid] was 0.16 nM.
The value for `Cc1cc(Nc2cc(C(F)(F)F)ccn2)nc(-c2cnc(C3(O)CCCc4cc(C(=O)O)c(Br)cc43)s2)c1` (single isomer, unassigned) [Example 1A, 3-Bromo-5-hydroxy-5-[5-(4-methyl-6-{[4-(trifluoromethyl)pyridin-2-yl]amino}pyridin-2-yl)-1,3-thiazol-2-yl]-5,6,7,8-tetrahydronaphthalene-2-carboxylic acid] was 1.51 nM; that for `Cc1ccnc(Nc2cc(C)cc(-c3cnc([C@@]4(O)CCc5cc(C(=O)O)ccc54)s3)n2)c1` [Example 2A, (1R)-1-hydroxy-1-(5-{4-methyl-6-[(4-methylpyridin-2-yl)amino]pyridin-2-yl}-1,3-thiazol-2-yl)-2,3-dihydro-1H-indene-5-carboxylic acid] was 0.15 nM.
On to `Cc1cc(Nc2cc(C3CC3)ccn2)nc(-c2cnc([C@@]3(O)CCc4cc(C(=O)O)ccc43)s2)c1` [Example 2C, (1R)-1-(5-{6-[(4-cyclopropylpyridin-2-yl)amino]-4-methylpyridin-2-yl}-1,3-thiazol-2-yl)-1-hydroxy-2,3-dihydro-1H-indene-5-carboxylic acid], for which the IC50 is 0.55 nM.
The value for `Cc1cc(Nc2cc(C(C)F)ccn2)nc(-c2cnc(C3(O)CCCc4cc(C(=O)O)ccc43)s2)c1` (single isomer, unassigned) [Example 8A, 5-(5-(6-((4-(1-Fluoroethyl)pyridin-2-yl)amino)-4-methylpyridin-2-yl)thiazol-2-yl)-5-hydroxy-5,6,7,8-tetrahydronaphthalene-2-carboxylic acid] was 2 nM.
The value for `CCc1ccnc(Nc2cc(C)cc(-c3cnc([C@@]4(O)CCCc5cc(C(=O)O)ccc54)s3)n2)c1` [Example 2F, (5R)-5-(5-{6-[(4-ethylpyridin-2-yl)amino]-4-methylpyridin-2-yl}-1,3-thiazol-2-yl)-5-hydroxy-5,6,7,8-tetrahydronaphthalene-2-carboxylic acid] was 0.2 nM; that for `Cc1cc(Nc2cc(C(F)F)ccn2)nc(-c2cnc([C@@]3(O)CCc4cc(C(=O)O)ccc43)s2)c1` [Example 2i, (1R)-1-[5-(6-{[4-(difluoromethyl)pyridin-2-yl]amino}-4-methylpyridin-2-yl)-1,3-thiazol-2-yl]-1-hydroxy-2,3-dihydro-1H-indene-5-carboxylic acid] was 0.13 nM.
The value for `Cc1cc(Nc2cc(C(F)(F)F)ccn2)nc(-c2cnc(C3(O)CCCc4c3ccc(C(=O)O)c4F)s2)c1` (single isomer, unassigned) [Example 1J, (R or S)-1-fluoro-5-hydroxy-5-[5-(4-methyl-6-{[4-(trifluoromethyl)pyridin-2-yl]amino}pyridin-2-yl)-1,3-thiazol-2-yl]-5,6,7,8-tetrahydronaphthalene-2-carboxylic acid] was 0.04 nM; that for `CCc1ccnc(Nc2cc(C)cc(-c3cnc([C@@]4(O)CCc5cc(C(=O)O)ccc54)s3)n2)c1` [Example 2B, (1R)-1-(5-{6-[(4-ethylpyridin-2-yl)amino]-4-methylpyridin-2-yl}-1,3-thiazol-2-yl)-1-hydroxy-2,3-dihydro-1H-indene-5-carboxylic acid] was 0.17 nM.
`Cc1cc(Nc2cc(C(F)(F)F)ccn2)nc(-c2cnc([C@@]3(O)CCCc4c3ccc(C(=O)O)c4O)s2)c1` (single isomer, unassigned) [Example 7B, 1,5-Dihydroxy-5-[5-(4-methyl-6-{[4-(trifluoromethyl)pyridin-2-yl]amino}pyridin-2-yl)-1,3-thiazol-2-yl]-5,6,7,8-tetrahydronaphthalene-2-carboxylic acid]: the IC50 turned out to be 0.24 nM.
The value for `CCCc1ccnc(Nc2cc(C)cc(-c3cnc([C@@]4(O)CCc5cc(C(=O)O)ccc54)s3)n2)c1` [Example 3D, (1R)-1-hydroxy-1-(5-{4-methyl-6-[(4-propylpyridin-2-yl)amino]pyridin-2-yl}-1,3-thiazol-2-yl)-2,3-dihydro-1H-indene-5-carboxylic acid] was 0.08 nM.
